{
  "source": "patent US20050112573A1",
  "about": "“Method of detecting toxic substance” (priority 2001, published 2005)",
  "system": "yeast genes (level of expressed mRNA)",
  "test": "DNA chip analysis of expressed mRNA of yeast genes after 2 h culture with a toxic chemical substance",
  "assay_type": "cell-based, Saccharomyces cerevisiae S288C",
  "description": "Yeast (Saccharomyces cerevtisiae S288C (α SUC2mal mel gap2 CUP1)) were cultured at 25° C. on YPD medium (yeast extract 1%, polypepton 2%, glucose 2%). One of toxic chemical substances was added to the cell at logarithmic growth phase, and the cell was further cultured for two hours. Cell was cultured without any chemical substance in the same condition, and was used as control. Concentrations of the chemical substances were defined to inhibit the growth of the yeast but not lead to death.\nAfter the completion of cultivation, the culture was centrifuged to collect the cells. To the cells, sodium acetate buffer (50 mM sodium acetate, 10 mM EDTA, 1% SDS) was added, and the mixture was shaken at 65° C. for five minutes, followed by returning to room temperature, and obtaining the supernatant, which procedure was repeated two times. To the supernatant, ½ amount of a solution of phenol/chloroform was added, and the mixture was centrifuged to give a supernatant, which was added with an equal amount of chloroform, and the mixture was centrifuged to give a supernatant. To the supernatant, an equal amount of isopropanol containing 0.3 M sodium acetate was added, and the mixture was allowed to stand at room temperature for 30 minutes, after which the mixture was centrifuged to give a sediment of the whole RNAs. Seventy % ethanol was added to the sediment, and the mixture was again centrifuged to give a sediment, which was then dried and dissolved in water. mRNA was isolated from the whole RNAs as followings. In view of the fact that a poly A chain is attached to the 3′ terminus of mRNA, a polynucleotide having a poly T structure which was immobilized on the surface of latex beads was used to trap the mRNA, and then the mRNA was washed and eluted with spine column (Oligotex-dT30<Super>mRNA Purification Kit, Takara). Reverse transcription of the mRNA was conducted with a reverse transcriptase (Super Script II Reverse Transcriptase; catalogue No. 18064-014, GibcoBRL) using fluorescence-labeled nucleotides to give cDNAs that were introduced with Cy3-dUTP or Cy5-dUTP during the reverse transcription.\nThe labeled cDNAs were dissolved in TE buffer (10 mM Tris-HCl/1 mM EDTA, pH8.0), and the solution was dropped on the DNA chip containing the whole genes of yeast (DNA Chip Research Inc. Japan) so that the cDNAs were hybridized on the DNA chip at 65° C. for over 12 hours. The fluoresces intensity of the DNA chip was read with a scanner, and the ratio relative to the fluorescence intensity resulting from the absence of chemical substance was estimated as the following, which is shown in Tables 1 to 9: [formula]\nIn the Tables, “Intensity” indicated in the rightmost column is a value of the level of expressed mRNA of each gene in control cells as divided by the average level of the expressions of the whole genes.",
  "data": [
    {"substance": "CdCl2 [(2)]", "values": [
      {"measurement": "The level of expressed mRNA in the presence of chemical substance/", "setting": "yeast gene YFL010C, ratio to control without chemical substance, 2 h culture", "result": 4.8},
      {"measurement": "The level of expressed mRNA in the presence of chemical substance/", "setting": "yeast gene YFL024C, ratio to control without chemical substance, 2 h culture", "result": 1.1},
      {"measurement": "The level of expressed mRNA in the presence of chemical substance/The level of expressed mRNA in the absence of chemical substance", "setting": "yeast gene YFL028C", "result": 1.1},
      {"measurement": "The level of expressed mRNA in the presence of chemical substance/", "setting": "yeast gene YFL032W, ratio to control without chemical substance, 2 h culture", "result": 1.5},
      {"measurement": "The level of expressed mRNA in the presence of chemical substance/The level of expressed mRNA in the absence of chemical substance", "setting": "yeast gene YFL043C", "result": 1.2},
      {"measurement": "The level of expressed mRNA in the presence of chemical substance/in the absence of chemical substance", "setting": "yeast gene YGL035C", "result": 1.4},
      {"measurement": "The level of expressed mRNA in the presence of chemical substance/", "setting": "yeast gene YGL037C, ratio to control without chemical substance, 2 h culture", "result": 2.7},
      {"measurement": "The level of expressed mRNA in the presence of chemical substance/", "setting": "yeast gene YGL047W, ratio to control without chemical substance, 2 h culture", "result": 1.9},
      {"measurement": "The level of expressed mRNA in the presence of chemical substance/", "setting": "yeast gene YGL053W, ratio to control without chemical substance, 2 h culture", "result": 1.5},
      {"measurement": "The level of expressed mRNA in the presence of chemical substance/", "setting": "yeast gene YGL121C, ratio to control without chemical substance, 2 h culture", "result": 5.0},
      {"measurement": "The level of expressed mRNA in the presence of chemical substance/The level of expressed mRNA in the absence of chemical substance", "setting": "yeast gene YGL158W", "result": 2.8},
      {"measurement": "The level of expressed mRNA in the presence of chemical substance/", "setting": "yeast gene YGL199C, ratio to control without chemical substance, 2 h culture", "result": 1.7},
      {"measurement": "The level of expressed mRNA in the presence of chemical substance/The level of expressed mRNA in the absence of chemical substance", "setting": "yeast gene YGL229C", "result": 0.7},
      {"measurement": "The level of expressed mRNA in the presence of chemical substance/", "setting": "yeast gene YGR101W, ratio to control without chemical substance, 2 h culture", "result": 1.3},
      {"measurement": "The level of expressed mRNA in the presence of chemical substance/", "setting": "yeast gene YGR110W, ratio to control without chemical substance, 2 h culture", "result": 3.1},
      {"measurement": "The level of expressed mRNA in the presence of chemical substance/", "setting": "yeast gene YGR130C, ratio to control without chemical substance, 2 h culture", "result": 0.7},
      {"measurement": "The level of expressed mRNA in the presence of chemical substance/The level of expressed mRNA in the absence of chemical substance", "setting": "yeast gene YGR136W", "result": 1.2},
      {"measurement": "The level of expressed mRNA in the presence of chemical substance/", "setting": "yeast gene YGR154C, ratio to control without chemical substance, 2 h culture", "result": 2.9},
      {"measurement": "The level of expressed mRNA in the presence of chemical substance/The level of expressed mRNA in the absence of chemical substance", "setting": "yeast gene YGR189C", "result": 0.9},
      {"measurement": "The level of expressed mRNA in the presence of chemical substance/The level of expressed mRNA in the absence of chemical substance", "setting": "yeast gene YGR213C", "result": 2.9},
      {"measurement": "The level of expressed mRNA in the presence of chemical substance/", "setting": "yeast gene YGR221C, ratio to control without chemical substance, 2 h culture", "result": 2.2},
      {"measurement": "The level of expressed mRNA in the presence of chemical substance/The level of expressed mRNA in the absence of chemical substance", "setting": "yeast gene YGR257C", "result": 0.8},
      {"measurement": "The level of expressed mRNA in the presence of chemical substance/in the absence of chemical substance", "setting": "yeast gene YGR287C", "result": 1.0},
      {"measurement": "The level of expressed mRNA in the presence of chemical substance/The level of expressed mRNA in the absence of chemical substance", "setting": "yeast gene YHR004C", "result": 1.1},
      {"measurement": "The level of expressed mRNA in the presence of chemical substance/The level of expressed mRNA in the absence of chemical substance", "setting": "yeast gene YHR071W", "result": 1.1},
      {"measurement": "The level of expressed mRNA in the presence of chemical substance/", "setting": "yeast gene YHR138C, ratio to control without chemical substance, 2 h culture", "result": 1.8},
      {"measurement": "The level of expressed mRNA in the presence of chemical substance/The level of expressed mRNA in the absence of chemical substance", "setting": "yeast gene YHR139C", "result": 4.6},
      {"measurement": "The level of expressed mRNA in the presence of chemical substance/The level of expressed mRNA in the absence of chemical substance", "setting": "yeast gene YHR142W", "result": 0.8},
      {"measurement": "The level of expressed mRNA in the presence of chemical substance/", "setting": "yeast gene YHR199C, ratio to control without chemical substance, 2 h culture", "result": 2.0},
      {"measurement": "The level of expressed mRNA in the presence of chemical substance/", "setting": "yeast gene YIL023C, ratio to control without chemical", "result": 1.2},
      {"measurement": "The level of expressed mRNA in the presence of chemical substance/", "setting": "yeast gene YIL041W, ratio to control without chemical substance, 2 h culture", "result": 1.2},
      {"measurement": "The level of expressed mRNA in the presence of chemical substance/", "setting": "yeast gene YIL087C, ratio to control without chemical substance, 2 h culture", "result": 1.9},
      {"measurement": "The level of expressed mRNA in the presence of chemical substance/The level of expressed mRNA in the absence of chemical substance", "setting": "yeast gene YIL123W", "result": 0.5},
      {"measurement": "The level of expressed mRNA in the presence of chemical substance/The level of expressed mRNA in the absence of chemical substance", "setting": "yeast gene YIL140W", "result": 1.0},
      {"measurement": "The level of expressed mRNA in the presence of chemical substance/", "setting": "yeast gene YJL057C, ratio to control without chemical substance, 2 h culture", "result": 1.2},
      {"measurement": "The level of expressed mRNA in the presence of chemical substance/", "setting": "yeast gene YJL066C, ratio to control without chemical substance, 2 h culture", "result": 1.2},
      {"measurement": "The level of expressed mRNA in the presence of chemical substance/in the absence of chemical substance", "setting": "yeast gene YJL070C", "result": 0.9},
      {"measurement": "The level of expressed mRNA in the presence of chemical substance/The level of expressed mRNA in the absence of chemical substance", "setting": "yeast gene YJL073W", "result": 0.8},
      {"measurement": "The level of expressed mRNA in the presence of chemical substance/", "setting": "yeast gene YJL082W, ratio to control without chemical substance, 2 h culture", "result": 0.8},
      {"measurement": "The level of expressed mRNA in the presence of chemical substance/The level of expressed mRNA in the absence of chemical substance", "setting": "yeast gene YJL089W", "result": 1.5},
      {"measurement": "The level of expressed mRNA in the presence of chemical substance/The level of expressed mRNA in the absence of chemical substance", "setting": "yeast gene YJL116C", "result": 1.8},
      {"measurement": "The level of expressed mRNA in the presence of chemical substance/", "setting": "yeast gene YJL151C, ratio to control without chemical substance, 2 h culture", "result": 2.4},
      {"measurement": "The level of expressed mRNA in the presence of chemical substance/", "setting": "yeast gene YJL152W, ratio to control without chemical substance, 2 h culture", "result": 1.5},
      {"measurement": "The level of expressed mRNA in the presence of chemical substance/", "setting": "yeast gene YJL161W, ratio to control without chemical substance, 2 h culture", "result": 2.2},
      {"measurement": "The level of expressed mRNA in the presence of chemical substance/in the absence of chemical substance", "setting": "yeast gene YJL167W", "result": 1.4},
      {"measurement": "The level of expressed mRNA in the presence of chemical substance/", "setting": "yeast gene YJL171C, ratio to control without chemical substance, 2 h culture", "result": 0.7},
      {"measurement": "The level of expressed mRNA in the presence of chemical substance/in the absence of chemical substance", "setting": "yeast gene YJL216C", "result": 4.7},
      {"measurement": "The level of expressed mRNA in the presence of chemical substance/The level of expressed mRNA in the absence of chemical substance", "setting": "yeast gene YJR004C", "result": 0.8},
      {"measurement": "The level of expressed mRNA in the presence of chemical substance/", "setting": "yeast gene YJR008W, ratio to control without chemical substance, 2 h culture", "result": 1.5},
      {"measurement": "The level of expressed mRNA in the presence of chemical substance/", "setting": "yeast gene YJR054W, ratio to control without chemical", "result": 0.9},
      {"measurement": "The level of expressed mRNA in the presence of chemical substance/The level of expressed mRNA in the absence of chemical substance", "setting": "yeast gene YJR086W", "result": 1.1},
      {"measurement": "The level of expressed mRNA in the presence of chemical substance/The level of expressed mRNA in the absence of chemical substance", "setting": "yeast gene YKL008C", "result": 0.6},
      {"measurement": "The level of expressed mRNA in the presence of chemical substance/The level of expressed mRNA in the absence of chemical substance", "setting": "yeast gene YKL013C", "result": 0.9},
      {"measurement": "The level of expressed mRNA in the presence of chemical substance/The level of expressed mRNA in the absence of chemical substance", "setting": "yeast gene YKL039W", "result": 1.1},
      {"measurement": "The level of expressed mRNA in the presence of chemical substance/The level of expressed mRNA in the absence of chemical substance", "setting": "yeast gene YKL041W", "result": 0.8},
      {"measurement": "The level of expressed mRNA in the presence of chemical substance/", "setting": "yeast gene YKL071W, ratio to control without chemical substance, 2 h culture", "result": 3.8}
    ]}
  ]
}
